# Test results taken from PubChem BioAssay (NCI).
# Values joined by “and” are separate entries in the source; they are usually repeats but may differ in a detail not shown here. Identical values can stand only once.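 Tested at 5 concentrations; 48 h exposure; 96-well plates; endpoints linearly interpolated, else capped at highest concentration. Abbreviation: GI50, concentration required for 50% inhibition of growth. At the TGI there is no net growth.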
# What was measured:
# Test in all cases: NCI anticancer screen, dose series, 48 h
# CCRF-CEM leukemia = tested on: CCRF-CEM leukemia
# UACC-257 melanoma = tested on: UACC-257 melanoma
# EKVX NSCLC = tested on: EKVX NSCLC
# OVCAR-8 ovarian = tested on: OVCAR-8 ovarian
# SF-539 CNS = tested on: SF-539 CNS
# TK-10 renal = tested on: TK-10 renal
# NCI-H23 lung = tested on: NCI-H23 lung
# SN12C renal = tested on: SN12C renal
# SK-MEL-5 melanoma = tested on: SK-MEL-5 melanoma
# MDA-MB-435 = tested on: MDA-MB-435
Compound,TGI (CCRF-CEM leukemia) [µM],TGI (UACC-257 melanoma),TGI (EKVX NSCLC) [µM],TGI (OVCAR-8 ovarian),TGI (SF-539 CNS),TGI (TK-10 renal) [µM],TGI (NCI-H23 lung),TGI (SN12C renal),TGI (SK-MEL-5 melanoma),TGI (MDA-MB-435) [µM],GI50 (UACC-257 melanoma),GI50 (EKVX NSCLC),GI50 (SK-MEL-5 melanoma),GI50 (CCRF-CEM leukemia) [µM],GI50 (OVCAR-8 ovarian) [µM],GI50 (SF-539 CNS) [µM],GI50 (TK-10 renal) [µM],GI50 (NCI-H23 lung),GI50 (SN12C renal) [µM],GI50 (MDA-MB-435) [µM]
NC(N)=NCCCC(Nc1c2ccccc2nc2ccccc12)C(=O)O (stereo not drawn),> 100,> 100 µM,> 100,> 100 µM,> 100 µM,> 100,> 100 µM,> 100 µM,,,,,,,,,,,,
O=C(CCl)N1CCN(c2ccccc2)CC1,> 100,43.6 µM,44.2,97.2 µM,,34.8,35.6 µM,,31.1 µM,,,,,,,,,,,
O=C1CCC2(c3ccccc3)OCC([C@@H](O)c3ccccc3)N12 (stereo partly drawn),> 100,> 100 µM,> 100,> 100 µM,> 100 µM,> 100,> 100 µM,> 100 µM,> 100 µM,,,,,,,,,,,
Cc1[nH]c2ccccc2c1/C=C/c1c(C)[nH]c2ccccc12,> 100,> 100 µM,> 100,> 100 µM,> 100 µM,> 100,> 100 µM,,> 100 µM,,,,,,,,,,,
Nc1nc2c(ncn2C2OC(CO)C(O)C2O)c(=O)o1 (stereo not drawn),> 100,> 100 µM,> 100,> 100 µM,> 100 µM,> 100,> 100 µM,> 100 µM,> 100 µM,,,,,,,,,,,
CN(C)Cc1ccc(O)c(CN(C)C)n1,,> 100 µM,> 100,> 100 µM,> 100 µM,> 100,> 100 µM,> 100 µM,> 100 µM,> 100,,,,,,,,,,
CC[C@@]1(O)C(=O)OCc2c1cc1n(c2=O)Cc2cc3cc(O)ccc3nc2-1,,0.481 µM and 2.1 µM,,2.47 µM and 0.477 µM,0.0495 µM and 0.0166 µM,44.9,0.109 µM and 0.0424 µM,1.48 µM and 3.54 µM,0.111 µM and 0.0959 µM,1.09,0.047 µM and 0.156 µM,0.107 µM and 0.903 µM,0.0247 µM and 0.0167 µM,,,,,,,
CC1CN1c1c(C(=O)/C=C/c2ccc(F)cc2)c(-c2ccccc2)nn(C)c1=O (stereo not drawn),48.8,27.4 µM,33.4,27.6 µM,,31,27.1 µM,29.1 µM,29.5 µM,,,,,,,,,,,
Cc1cc(C)c([O-])c(-[n+]2c(-c3ccccc3)cc(-c3ccccc3)cc2-c2ccccc2)c1,10.1,10.1 µM,21.4,17.7 µM,26.9 µM,19.4,13.7 µM,18.5 µM,5.71 µM,,,,,,,,,,,
COc1ccc(N=Nc2c(-c3ccccc3)nn(C(=O)CC(=O)Nc3ccc(OC)cc3)c2-c2ccccc2)cc1,53.1,> 100 µM,> 100,> 100 µM,59 µM,> 100,> 100 µM,> 100 µM,> 100 µM,,,,,,,,,,,
Cc1cc(NS(=O)(=O)c2ccc(-c3cnc(C4CC4)o3)cc2)ccc1Cl,> 41.1,18.2 µM,17.1,17.7 µM,4.09 µM,16,15.6 µM,13.9 µM,11.5 µM,,1.77 µM,0.557 µM,0.253 µM,0.274,0.552,0.281,1.11,0.57 µM,0.961,
COC1(OC)CCC2(C)OC(c3ccccc3)C1O2 (stereo not drawn),> 100,> 100 µM,> 100,> 100 µM,> 100 µM,> 100,> 100 µM,> 100 µM,,,,,,,,,,,,
N#C/C(=C\c1ccc(O)c(O)c1)C(=O)NCc1cccc(C(F)(F)F)c1,,52.5 µM,39.8,62.2 µM,17 µM,6.43,31.5 µM,31.1 µM,19.3 µM,18,12.2 µM,13.7 µM,5.29 µM,,10.2,3.51,1.31,12.2 µM,11.3,4.28
COC(=O)COc1ccccc1/C=C1/N=C(c2ccccc2)N(c2c(C)n(C)n(-c3ccccc3)c2=O)C1=O,,,> 100,> 100 µM,> 100 µM,> 100,> 100 µM,> 100 µM,> 100 µM,> 100,,> 100 µM,> 100 µM,,> 100,> 100,> 100,> 100 µM,> 100,> 100
COC(=O)C1=C(C)N(NC(N)=O)C2(N)N(NC(N)=O)C(C)=C(C(=O)OC)C12C#N (stereo not drawn),> 100,> 100 µM,> 100,> 100 µM,> 100 µM,> 100,> 100 µM,> 100 µM,,,,,,,,,,,,
CN(C)CC1CCCC/C1=N\OC(=O)c1ccccc1 (stereo not drawn),> 100,> 100 µM,> 100,> 100 µM,> 100 µM,> 100,> 100 µM,> 100 µM,> 100 µM,,,,,,,,,,,
COc1ccc(C(=O)C(c2ccc(OC)cc2)C2(O)C(=O)Nc3c(Cl)cc(Cl)cc32)cc1 (stereo not drawn),44.2,31.7 µM,38.9,56.2 µM,,55,38.5 µM,35.6 µM,34.7 µM,,,,,,,,,,,
CC(C)(C)c1cc(Cc2ccc(S(C)(=O)=O)cc2)c(O)c(C(C)(C)C)c1,30.5,31 µM,28.4,28.1 µM,30.7 µM,31.7,31.3 µM,28.6 µM,30 µM,,,,,,,,,,,
CC(=O)NNc1nc(C)c(C(=O)/C=C/c2ccc(N(C)C)cc2)s1,> 100,> 100 µM,> 100,> 100 µM,> 100 µM,> 100,> 100 µM,> 100 µM,> 100 µM,,,,,,,,,,,
O=C1CC[C@@H](S(=O)(=O)c2ccccc2)[C@H](/C=C/c2ccccc2)O1,> 100,> 100 µM,> 100,> 100 µM,> 100 µM,> 100,> 100 µM,> 100 µM,> 100 µM,,,,,,,,,,,
CCN(CC)CCN1C(=O)c2c(c3c4cccc(Cl)c4n(C4OC(CO)C(OC)C(O)C4O)c3c3[nH]c4c(Cl)cccc4c23)C1=O (stereo not drawn),,,,,,,,,,0.217,,,,< 0.0001,< 0.0001,,,0.000398 µM and < 0.0329 µM and < 0.01 µM,,
